Reference: patent US20230263822A1, “MODULATION OF FACTOR 11 EXPRESSION” (Ionis Pharmaceuticals, Inc., priority 2008, published 2023)
Strand notation (5' to 3'): a small letter for the sugar, then the base; units joined by * are phosphorothioate-linked, units joined directly phosphodiester-linked; [ ] holds rarer units or linkages, { } end groups; capitals alone tell only the bases. e = 2'-O-(2-methoxyethyl) (MOE); [5mC] = 5-methylcytosine; d = 2'-deoxy (DNA)

How the values were obtained:
[1] = test system: IL-1β, IL-6, IFN-γ, TNF-α, IL-8, MIP-1α, MCP-1, MIP-1β, RANTES; assay: Cytokine and chemokine assays in cynomolgus monkeys (Example 46); type: in vivo
Protocol: (§1) Groups, each consisting of two male and two female monkeys, were injected subcutaneously with 25 mg/kg of ISIS 416850, ISIS 449709, ISIS 445522, ISIS 449710, ISIS 449707, ISIS 449711, ISIS 449708, 416858, and ISIS 445531. Antisense oligonucleotide was administered to the monkeys at 25 mg/kg three times per week for week 1 and 25 mg/kg twice per week for weeks 2 to 8. A control group, consisting of two male and two female monkeys was injected subcutaneously with PBS according to the same dosing regimen. Body weights were taken 14 days and 7 days before the start of treatment and were then measured weekly throughout the treatment period. Blood samples were collected 14 days and 5 days before the start of treatment and subsequently several times during the dosing regimen for PT and aPTT measurements, and measurement of various hematologic factors. On day 55, the monkeys were euthanized by exsanguination while under deep anesthesia, and organs harvested for further analysis.
Blood samples obtained from all monkey groups were sent to Pierce Biotechnology (Woburn, Mass.) for measurements of chemokine and cytokine levels. Levels of IL-1β, IL-6, IFN-γ, and TNF-α were measured using the respective primate antibodies and levels of IL-8, MIP-1α, MCP-1, MIP-1β and RANTES were measured using the respective cross-reacting human antibodies. Measurements were taken 14 days before the start of treatment and on day 55, when the monkeys were euthanized.

[2] = Hematology assays in cynomolgus monkeys (Example 46); type: in vivo
Protocol: as §1

[3] = day-14 (before start of treatment)

Work on “ISIS 449708: 3-8-3, 4-8-4, 2-10-2, 3-10-3 or 4-10-4 MOE microwalk gapmer (Table 46) (antisense eA*e[5mC]*eA*dG*dT*dT*dT*d[5mC]*dT*dG*dG*e[5mC]*eA*eG)” yielded an IFN-γ level ([1]; day 55) of 18 pg/mL, an IL-1ß level ([1]; day 55) of 131 pg/mL and an IL-6 level ([1]; day 55) of 0 pg/mL. The IL-8 level ([1]; day 55) was 85 pg/mL, the MCP-1 level ([1]; day 55) was 409 pg/mL and the MIP-1ß level ([1]; day 55) was 128 pg/mL. The MIP-1α level ([1]; day 55) was 23 pg/mL, the RANTES level ([1]; day 55) was 4561 pg/mL and the TNF-α level ([1]; day 55) was 17 pg/mL. It also gave an IFN-γ level [1, 3] of 27 pg/mL, an IL-1ß level [1, 3] of 35 pg/mL and an IL-6 level [1, 3] of 1 pg/mL. For the same substance, the IL-8 level [1, 3] was 184 pg/mL, the MCP-1 level [1, 3] was 361 pg/mL and the MIP-1ß level [1, 3] was 19 pg/mL. For the same substance, the MIP-1α level [1, 3] was 11 pg/mL, the RANTES level [1, 3] was 11666 pg/mL and the TNF-α level [1, 3] was 12 pg/mL. For the same substance, the HCT ([2]; Day 17) was 44%, the MCH ([2]; Day 17) was 22.9 pg and the MCHC ([2]; Day 17) was 30.7 g/dL. It also gave an MCV ([2]; Day 17) of 75 fL, an RBC count ([2]; Day 17) of 5.9e+06 µL⁻¹ and a WBC count ([2]; Day 17) of 11000 µL⁻¹. The hemoglobin content ([2]; Day 17) was 13.5 g/dL, the monocytes ([2]; Day 17) was 5.4% and the neutrophils ([2]; Day 17) was 61%. For the same substance, the platelet count ([2]; Day 17) was 444 ×100/μL, the HCT ([2]; Day 31) was 43% and the MCH ([2]; Day 31) was 22.7 pg. It also gave an MCHC ([2]; Day 31) of 29.9 g/dL, an MCV ([2]; Day 31) of 75 fL and an RBC count ([2]; Day 31) of 5.8e+06 µL⁻¹. It also gave a WBC count ([2]; Day 31) of 11000 µL⁻¹, a hemoglobin content ([2]; Day 31) of 13.0 g/dL and a monocytes ([2]; Day 31) of 5.8%. For the same substance, the neutrophils ([2]; Day 31) was 57%, the platelet count ([2]; Day 31) was 378 ×100/μL and the HCT ([2]; Day 45) was 44%. The MCH ([2]; Day 45) was 22.2 pg, the MCHC ([2]; Day 45) was 30.6 g/dL and the MCV ([2]; Day 45) was 74 fL. The RBC count ([2]; Day 45) was 6e+06 µL⁻¹, the WBC count ([2]; Day 45) was 10000 µL⁻¹ and the hemoglobin content ([2]; Day 45) was 13.3 g/dL. The monocytes ([2]; Day 45) was 7.0%, the neutrophils ([2]; Day 45) was 61% and the platelet count ([2]; Day 45) was 381 ×100/μL. It also gave an HCT ([2]; Day 55) of 42%, an MCH ([2]; Day 55) of 22.5 pg and an MCHC ([2]; Day 55) of 31.8 g/dL. For the same substance, the MCV ([2]; Day 55) was 74 fL, the RBC count ([2]; Day 55) was 5.8e+06 µL⁻¹ and the WBC count ([2]; Day 55) was 10000 µL⁻¹. It also gave a hemoglobin content ([2]; Day 55) of 13.0 g/dL, a monocytes ([2]; Day 55) of 6.2% and a neutrophils ([2]; Day 55) of 75%. The platelet count ([2]; Day 55) was 348 ×100/μL, the HCT ([2]; Day-5) was 44% and the MCH ([2]; Day-5) was 22.7 pg. The MCHC ([2]; Day-5) was 30.2 g/dL, the MCV ([2]; Day-5) was 75 fL and the RBC count ([2]; Day-5) was 5.9e+06 µL⁻¹. It also gave a WBC count ([2]; Day-5) of 10000 µL⁻¹, a hemoglobin content ([2]; Day-5) of 13.2 g/dL and a monocytes ([2]; Day-5) of 2.6%. The neutrophils ([2]; Day-5) was 84%, the platelet count ([2]; Day-5) was 517 ×100/μL and the HCT ([2]; Day-14) was 41%. The MCH ([2]; Day-14) was 22.9 pg, the MCHC ([2]; Day-14) was 31.4 g/dL and the MCV ([2]; Day-14) was 73 fL. The RBC count ([2]; Day-14) was 5.7e+06 µL⁻¹, the WBC count ([2]; Day-14) was 14000 µL⁻¹ and the hemoglobin content ([2]; Day-14) was 13.0 g/dL. The monocytes ([2]; Day-14) was 1.7%, the neutrophils ([2]; Day-14) was 73% and the platelet count ([2]; Day-14) was 387 ×100/μL.

For “ISIS 449707: 3-8-3, 4-8-4, 2-10-2, 3-10-3 or 4-10-4 MOE microwalk gapmer (Table 46) (antisense e[5mC]*eA*e[5mC]*eA*dG*dT*dT*dT*d[5mC]*dT*dG*dG*e[5mC]*eA*eG*eG)”, the IFN-γ level ([1]; day 55) was 24 pg/mL, the IL-1ß level ([1]; day 55) was 97 pg/mL and the IL-6 level ([1]; day 55) was 1 pg/mL. It also gave an IL-8 level ([1]; day 55) of 48 pg/mL, an MCP-1 level ([1]; day 55) of 264 pg/mL and an MIP-1ß level ([1]; day 55) of 49 pg/mL. It also gave an MIP-1α level ([1]; day 55) of 12 pg/mL, an RANTES level ([1]; day 55) of 1193 pg/mL and a TNF-α level ([1]; day 55) of 16 pg/mL. It also gave an IFN-γ level [1, 3] of 34 pg/mL, an IL-1ß level [1, 3] of 115 pg/mL and an IL-6 level [1, 3] of 1 pg/mL. It also gave an IL-8 level [1, 3] of 106 pg/mL, an MCP-1 level [1, 3] of 294 pg/mL and an MIP-1ß level [1, 3] of 13 pg/mL. The MIP-1α level [1, 3] was 16 pg/mL, the RANTES level [1, 3] was 3014 pg/mL and the TNF-α level [1, 3] was 6 pg/mL. For the same substance, the HCT ([2]; Day 17) was 42%, the MCH ([2]; Day 17) was 22.1 pg and the MCHC ([2]; Day 17) was 30.0 g/dL. The MCV ([2]; Day 17) was 74 fL, the RBC count ([2]; Day 17) was 5.7e+06 µL⁻¹ and the WBC count ([2]; Day 17) was 12000 µL⁻¹. The hemoglobin content ([2]; Day 17) was 12.7 g/dL, the monocytes ([2]; Day 17) was 3.2% and the neutrophils ([2]; Day 17) was 80%. For the same substance, the platelet count ([2]; Day 17) was 408 ×100/μL, the HCT ([2]; Day 31) was 43% and the MCH ([2]; Day 31) was 22.1 pg. The MCHC ([2]; Day 31) was 29.8 g/dL, the MCV ([2]; Day 31) was 74 fL and the RBC count ([2]; Day 31) was 5.7e+06 µL⁻¹. It also gave a WBC count ([2]; Day 31) of 11000 µL⁻¹, a hemoglobin content ([2]; Day 31) of 12.7 g/dL and a monocytes ([2]; Day 31) of 4.2%. The neutrophils ([2]; Day 31) was 89%, the platelet count ([2]; Day 31) was 408 ×100/μL and the HCT ([2]; Day 45) was 43%. The MCH ([2]; Day 45) was 22.6 pg, the MCHC ([2]; Day 45) was 29.8 g/dL and the MCV ([2]; Day 45) was 73 fL. It also gave an RBC count ([2]; Day 45) of 5.9e+06 µL⁻¹, a WBC count ([2]; Day 45) of 12000 µL⁻¹ and a hemoglobin content ([2]; Day 45) of 12.9 g/dL. For the same substance, the monocytes ([2]; Day 45) was 4.0%, the neutrophils ([2]; Day 45) was 89% and the platelet count ([2]; Day 45) was 424 ×100/μL. For the same substance, the HCT ([2]; Day 55) was 42%, the MCH ([2]; Day 55) was 21.9 pg and the MCHC ([2]; Day 55) was 30.0 g/dL. It also gave an MCV ([2]; Day 55) of 73 fL, an RBC count ([2]; Day 55) of 5.8e+06 µL⁻¹ and a WBC count ([2]; Day 55) of 8000 µL⁻¹. For the same substance, the hemoglobin content ([2]; Day 55) was 12.6 g/dL, the monocytes ([2]; Day 55) was 4.8% and the neutrophils ([2]; Day 55) was 98%. The platelet count ([2]; Day 55) was 399 ×100/μL, the HCT ([2]; Day-5) was 43% and the MCH ([2]; Day-5) was 22.2 pg. The MCHC ([2]; Day-5) was 29.8 g/dL, the MCV ([2]; Day-5) was 75 fL and the RBC count ([2]; Day-5) was 5.8e+06 µL⁻¹. The WBC count ([2]; Day-5) was 11000 µL⁻¹, the hemoglobin content ([2]; Day-5) was 12.8 g/dL and the monocytes ([2]; Day-5) was 2.3%. For the same substance, the neutrophils ([2]; Day-5) was 106%, the platelet count ([2]; Day-5) was 464 ×100/μL and the HCT ([2]; Day-14) was 40%. The MCH ([2]; Day-14) was 22.2 pg, the MCHC ([2]; Day-14) was 31.4 g/dL and the MCV ([2]; Day-14) was 71 fL. The RBC count ([2]; Day-14) was 5.7e+06 µL⁻¹, the WBC count ([2]; Day-14) was 13000 µL⁻¹ and the hemoglobin content ([2]; Day-14) was 12.7 g/dL. For the same substance, the monocytes ([2]; Day-14) was 1.3%, the neutrophils ([2]; Day-14) was 85% and the platelet count ([2]; Day-14) was 383 ×100/μL.
